In patent US20130303509A1, “NAMPT INHIBITORS” (AbbVie Inc., priority 2012, published 2013):

Each compound was assayed on PC3 cells (assay: NAMPT Cell Proliferation Assay). Details: Homo sapiens, PC-3, 120 h, 5 days incubation, cell viability by Cell Titer Glo.
Format: cell-based
How it was run: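 Seeded at 500 cells/well in RPMI with 10% heat-inactivated FBS and left to attach overnight at 37° C, 5% CO2. Compounds were added as 10-fold dilutions […] for 5 days, then viability was read by CellTiter-Glo. IC50s came from sigmoidal fits of percent inhibition.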

| SMILES | IC50 [nM] |
| --- | --- |
| CC(C)(C)C(=O)N1CCC(F)(c2ccc(NC(=O)C3CN(c4cccnn4)C3)cc2)CC1 [Example 864, N-{4-[1-(2,2-dimethylpropanoyl)-4-fluoropiperidin-4-yl]phenyl}-1-(pyridazin-3-yl)azetidine-3-carboxamide] | 5.29 |
| O=C(Nc1ccc(O[C@@H]2CCN(C(=O)C3CCOCC3)C2)cc1)C1CN(c2ccnnc2)C1 [Example 446, 1-(pyridazin-4-yl)-N-(4-{[(3R)-1-(tetrahydro-2H-pyran-4-ylcarbonyl)pyrrolidin-3-yl]oxy}phenyl)azetidine-3-carboxamide] | 108 |
| CC(C)(C)Cn1cnc(-c2ccc(NC(=O)C3CN(c4cccnn4)C3)cc2)c1 [Example 804, N-{4-[1-(2,2-dimethylpropyl)-1H-imidazol-4-yl]phenyl}-1-(pyridazin-3-yl)azetidine-3-carboxamide] | 7.92 |
| CC(C)n1cc(-c2ccc(NC(=O)[C@H]3CCN(c4cccnn4)C3)cc2)cn1 [Example 770, (3S)-N-{4-[1-(propan-2-yl)-1H-pyrazol-4-yl]phenyl}-1-(pyridazin-3-yl)pyrrolidine-3-carboxamide] | 138 |
| O=C(Nc1ccc(OC2CN(C(=O)c3ccc(F)cc3F)C2)cc1)C1CN(c2ccnnc2)C1 [Example 200, N-(4-{[1-(2,4-difluorobenzoyl)azetidin-3-yl]oxy}phenyl)-1-(pyridazin-4-yl)azetidine-3-carboxamide] | 71.9 |
| O=C(N[C@H]1CCN(c2cccnn2)C1)c1ccc(C2CCN(C(=O)C3CCOCC3)CC2)s1 [Example 758, N-[(3S)-1-(pyridazin-3-yl)pyrrolidin-3-yl]-5-[1-(tetrahydro-2H-pyran-4-ylcarbonyl)piperidin-4-yl]thiophene-2-carboxamide] | 857 |
| CC(C)(O)Cn1cc(-c2ccc(NC(=O)[C@H]3CCN(c4cccnn4)C3)cc2)cn1 [Example 757, (3S)-N-{4-[1-(2-hydroxy-2-methylpropyl)-1H-pyrazol-4-yl]phenyl}-1-(pyridazin-3-yl)pyrrolidine-3-carboxamide] | 67.7 |
| CC(C)C(=O)N1CCC(c2ccc(C(=O)N[C@H]3CCN(c4cccnn4)C3)s2)CC1 [Example 760, 5-[1-(2-methylpropanoyl)piperidin-4-yl]-N-[(3S)-1-(pyridazin-3-yl)pyrrolidin-3-yl]thiophene-2-carboxamide] | 253 |
| Cc1ccccc1C(=O)N1CCC(c2ccc(C(=O)NC3CN(c4cccnn4)C3)s2)CC1 [Example 812, 5-[1-(2-methylbenzoyl)piperidin-4-yl]-N-[1-(pyridazin-3-yl)azetidin-3-yl]thiophene-2-carboxamide] | 10.2 |
| CC(C)Cn1cc(-c2ccc(C(=O)N[C@H]3CCN(c4cnnc(Cl)c4Cl)C3)s2)cn1 [Example 620, N-[(3S)-1-(5,6-dichloropyridazin-4-yl)pyrrolidin-3-yl]-5-[1-(2-methylpropyl)-1H-pyrazol-4-yl]thiophene-2-carboxamide] | 2830 |
| Cc1ncccc1N1CC(C(=O)Nc2ccc(C3CCN(C(=O)C(C)C(C)C)CC3)cc2)C1 (centres unmarked) [Example 198, N-{4-[1-(2,3-dimethylbutanoyl)piperidin-4-yl]phenyl}-1-(2-methylpyridin-3-yl)azetidine-3-carboxamide] | 71.6 |
| COCC(=O)N1CCC(Oc2ccc(NC(=O)C3CN(c4cccnc4)C3)cc2)CC1 [Example 57, N-(4-{[1-(methoxyacetyl)piperidin-4-yl]oxy}phenyl)-1-(pyridin-3-yl)azetidine-3-carboxamide] | 8.75 |
| CC(C)(C)n1cc(-c2ccc(NC(=O)[C@H]3CCN(c4cccnn4)C3)cc2)cn1 [Example 773, (3S)-N-[4-(1-tert-butyl-1H-pyrazol-4-yl)phenyl]-1-(pyridazin-3-yl)pyrrolidine-3-carboxamide] | 85.7 |
| Cn1nc(C2CC2)cc1-c1ccc(NC(=O)C2CN(c3cccnn3)C2)cc1 [Example 805, N-[4-(3-cyclopropyl-1-methyl-1H-pyrazol-5-yl)phenyl]-1-(pyridazin-3-yl)azetidine-3-carboxamide] | 65 |

The next lines start with the values.

| IC50 [nM] | SMILES |
| --- | --- |
| 2.55 | CC(C)(C(=O)N1CCC(Oc2ccc(NC(=O)C3CN(c4cccnn4)C3)cc2)CC1)c1ccccc1 [Example 217, N-(4-{[1-(2-methyl-2-phenylpropanoyl)piperidin-4-yl]oxy}phenyl)-1-(pyridazin-3-yl)azetidine-3-carboxamide] |
| 701 | Cc1ncccc1N1CC(C(=O)Nc2ccc(C3CCN(C(=O)c4ccc(F)cc4)CC3)cc2)C1 [Example 155, N-{4-[1-(4-fluorobenzoyl)piperidin-4-yl]phenyl}-1-(2-methylpyridin-3-yl)azetidine-3-carboxamide] |
| 4.53 | O=C(Nc1ccc(OC2CCN(C(=O)Cc3cccc(F)c3)CC2)cc1)C1CN(c2cccnn2)C1 [Example 227, N-[4-({1-[(3-fluorophenyl)acetyl]piperidin-4-yl}oxy)phenyl]-1-(pyridazin-3-yl)azetidine-3-carboxamide] |
| 23.9 | O=C(Nc1ccc(C2CCN(C(=O)c3ccc(OC(F)(F)F)cc3)CC2)cc1)C1CN(c2ccnnc2)C1 [Example 555, 1-(pyridazin-4-yl)-N-(4-{1-[4-(trifluoromethoxy)benzoyl]piperidin-4-yl}phenyl)azetidine-3-carboxamide] |
| 8.21 | O=C(Nc1ccc(C2CCN(C(=O)Cc3cccc(C(F)(F)F)c3)CC2)cc1)C1CN(c2ccnnc2)C1 [Example 550, 1-(pyridazin-4-yl)-N-[4-(1-{[3-(trifluoromethyl)phenyl]acetyl}piperidin-4-yl)phenyl]azetidine-3-carboxamide] |
| 8.9 | O=C(Nc1ccc(C2CCN(C(=O)c3ccc(O)cc3)CC2)cc1)C1CN(c2cccnn2)C1 [Example 344, N-{4-[1-(4-hydroxybenzoyl)piperidin-4-yl]phenyl}-1-(pyridazin-3-yl)azetidine-3-carboxamide] |
| 69.2 | CC(=O)N1CCC(C(=O)N2CCC(c3ccc(NC(=O)[C@H]4CCN(c5cccnn5)C4)cc3)CC2)CC1 [Example 716, (3S)-N-(4-{1-[(1-acetylpiperidin-4-yl)carbonyl]piperidin-4-yl}phenyl)-1-(pyridazin-3-yl)pyrrolidine-3-carboxamide] |
| 0.61 | O=C(Nc1ccc(C2CCN(C(=O)CC(F)(F)F)CC2)cc1)C1CN(c2cccnc2)C1 [Example 122, 1-(pyridin-3-yl)-N-{4-[1-(3,3,3-trifluoropropanoyl)piperidin-4-yl]phenyl}azetidine-3-carboxamide] |
| 0.91 | O=C(Nc1ccc(C2CCN(C(=O)c3ccsc3)CC2)cc1)C1CN(c2cccnn2)C1 [Example 425, 1-(pyridazin-3-yl)-N-{4-[1-(thiophen-3-ylcarbonyl)piperidin-4-yl]phenyl}azetidine-3-carboxamide] |
| 2.14 | O=C(Nc1ccc(O[C@@H]2CCN(C(=O)c3ccccc3Cl)C2)cc1)C1CN(c2cccnn2)C1 [Example 483, N-(4-{[(3R)-1-(2-chlorobenzoyl)pyrrolidin-3-yl]oxy}phenyl)-1-(pyridazin-3-yl)azetidine-3-carboxamide] |
| 2.61 | O=C(Nc1ccc(C2CCN(C(=O)c3ccc(Cl)cc3Cl)CC2)cc1)C1CN(c2cccnn2)C1 [Example 362, N-{4-[1-(2,4-dichlorobenzoyl)piperidin-4-yl]phenyl}-1-(pyridazin-3-yl)azetidine-3-carboxamide] |
| 6.72 | O=C(Nc1ccc(C2CCN(C(=O)COCc3ccccc3)CC2)cc1)C1CN(c2cccnn2)C1 [Example 409, N-(4-{1-[(benzyloxy)acetyl]piperidin-4-yl}phenyl)-1-(pyridazin-3-yl)azetidine-3-carboxamide] |
| 1.28 | O=C(Nc1ccc(O[C@@H]2CCN(C(=O)c3cccc(Cl)c3)C2)cc1)C1CN(c2cccnn2)C1 [Example 506, N-(4-{[(3R)-1-(3-chlorobenzoyl)pyrrolidin-3-yl]oxy}phenyl)-1-(pyridazin-3-yl)azetidine-3-carboxamide] |
| 2.07 | O=C(Nc1ccc(O[C@@H]2CCN(C(=O)c3ccc(F)cc3)C2)cc1)C1CN(c2cccnn2)C1 [Example 489, N-(4-{[(3R)-1-(4-fluorobenzoyl)pyrrolidin-3-yl]oxy}phenyl)-1-(pyridazin-3-yl)azetidine-3-carboxamide] |
| 6.16 | O=C(Nc1ccc(C2CCN(C(=O)c3cc(Cl)ccc3Cl)CC2)cc1)[C@H]1CCN(c2cccnn2)C1 [Example 695, (3S)-N-{4-[1-(2,5-dichlorobenzoyl)piperidin-4-yl]phenyl}-1-(pyridazin-3-yl)pyrrolidine-3-carboxamide] |
| 4.2 | O=C(Nc1ccc(C2CCN(C(=O)C3CC3)CC2)cc1)C1CN(c2ccnnc2)C1 [Example 541, N-{4-[1-(cyclopropylcarbonyl)piperidin-4-yl]phenyl}-1-(pyridazin-4-yl)azetidine-3-carboxamide] |
| 6.8 | O=C(Nc1ccc(C2CCN(C(=O)c3cc(F)cc(F)c3)CC2)cc1)C1CN(c2cccnn2)C1 [Example 400, N-{4-[1-(3,5-difluorobenzoyl)piperidin-4-yl]phenyl}-1-(pyridazin-3-yl)azetidine-3-carboxamide] |
| 6.58 | CCC(C)(C)C(=O)N1CCC(Oc2ccc(NC(=O)C3CN(c4cccnn4)C3)cc2)CC1 [Example 248, N-(4-{[1-(2,2-dimethylbutanoyl)piperidin-4-yl]oxy}phenyl)-1-(pyridazin-3-yl)azetidine-3-carboxamide] |
| 1.5 | O=C(Nc1ccc(C2CCN(C(=O)CCS(=O)(=O)c3ccccc3)CC2)cc1)C1CN(c2cccnn2)C1 [Example 424, N-(4-{1-[3-(phenylsulfonyl)propanoyl]piperidin-4-yl}phenyl)-1-(pyridazin-3-yl)azetidine-3-carboxamide] |
| 93 | O=C(Nc1ccc(S(=O)(=O)C2CCN(C(=O)c3ccccc3F)CC2)cc1)C1CN(c2cccnn2)C1 [Example 577, N-(4-{[1-(2-fluorobenzoyl)piperidin-4-yl]sulfonyl}phenyl)-1-(pyridazin-3-yl)azetidine-3-carboxamide] |
| 283 | O=C(Nc1ccc(S(=O)(=O)C2CCN(C(=O)Cc3cc(F)cc(F)c3)CC2)cc1)C1CN(c2cccnn2)C1 [Example 585, N-[4-({1-[(3,5-difluorophenyl)acetyl]piperidin-4-yl}sulfonyl)phenyl]-1-(pyridazin-3-yl)azetidine-3-carboxamide] |
